Counter-ions that a name gives are not always drawn.
System: mildly overweight individuals with type 2 diabetes
Test: not given
Settings: seven day study, versus placebo; cited from earlier work

SMILES | hepatic glucose production
CC1(C)[C@@H](OC(=O)CCC(=O)O)CC[C@]2(C)[C@H]3C(=O)C=C4[C@@H]5C[C@@](C)(C(=O)O)CC[C@]5(C)CC[C@@]4(C)[C@]3(C)CC[C@@H]12 [carbenoxolone] | decrease in hepatic glucose production

Molecular target: T1, recombinant human 11beta-HSD1 (Homo sapiens, UniProt P28845)
T1 construct: Full length recombinant human 11β-HSD1 cDNAs and the cDNA encoding human 11β-HSD2 were expressed stably in HEK 293 EBNA cells; made in house
T1 sequence (P28845 whole entry): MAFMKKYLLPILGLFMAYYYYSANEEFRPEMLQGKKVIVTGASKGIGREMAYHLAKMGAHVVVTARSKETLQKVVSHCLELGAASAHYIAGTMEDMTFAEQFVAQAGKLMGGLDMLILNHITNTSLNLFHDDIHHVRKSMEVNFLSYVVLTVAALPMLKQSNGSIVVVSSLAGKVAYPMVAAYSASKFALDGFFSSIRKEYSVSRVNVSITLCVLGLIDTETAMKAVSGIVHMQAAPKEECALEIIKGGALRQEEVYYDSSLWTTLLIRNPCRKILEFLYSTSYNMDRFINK
Test: 11β-HSD1 SPA enzyme assay (in vitro inhibition, human microsomes, 3H-cortisone)
Assay type: biochemical
Settings: microsomes from HEK 293 EBNA cells, 40 nM 3H-cortisone, 4 hrs room temperature
Method: The in vitro inhibition of recombinant human 11beta-HSD1 was determined as follows.
[^3H]-Cortisone with a specific radioactivity of 50 Ci/mmol (ART 743, Lot: 050906) was from American Radiolabeled Chemicals, Inc. (St Louis, Mo.); monoclonal ab to Cortisol (P01-9294M-P, Lot: L-28) was from East Coast Bio., (North Berwick, Me.); Protein A-yttrium silicate, type-1, SPA bead NJ® (RPN-143) was from Amersham LifeSciences, (Piscataway, N.J.); 384 well-Optiplate384® (#6007299) was from PerkinElmer (Boston, Mass.); DPBS, pH 7.4 (14040) is from GIBCO, (Grand Island, N.Y.); carbenoxolone (C4790) is from Sigma, (St Louis, Mo.).
Full length recombinant human 11β-HSD1 cDNAs and the cDNA encoding human 11β-HSD2 were expressed stably in HEK 293 EBNA cells. Cells were grown in DMEM (high glucose) containing MEM non-essential amino acids, L-glutamine, hygromycin B (200 μg/ml), and G-418 (200 μg/ml) in the presence of 10% FBS.
Human 11β-HSD1 transfected HEK 293 EBNA cells were grown to 80% confluency and the cell pellet was quick frozen and stored at −80° C. before purification. Cell paste, 40 g from −80° C. storage, was thawed in water and then 100 ml of homogenization buffer H (0.01 M sodium phosphate pH 6.5 containing 0.25 M sucrose and protease inhibitor cocktail (Roche #1836145 1 tablet per 50 ml) were added to completely thaw the paste. The cell paste suspension was homogenized using a Polytron for 20 seconds to create a homogeneous mixture. Additional buffer H was added to a volume of 300 ml and cells were broken open using a N2-bomb (at 4° C.) in two batches by treating at 500 psi. The extract was centrifuged at 750×g for 30 min. The supernatant was centrifuged at 20,000×g for 30 min. The supernatant was further centrifuged at 105,000×g for 60 min. The 105,000×g pellet was resuspended in buffer H and centrifuged at 105,000×g for 60 min. The microsome pellet was scraped from the bottom of tube and resuspended in 0.01M phosphate buffer, pH 6.5 containing protease inhibitors (Roche #1836145, 1 tablet per 50 ml). Aliquots were stored at −80° C. until needed. The protein concentration was measured by the BioRad method using BSA standard.
Compounds were dissolved in DMSO to obtain 10 mM stock concentrations. From the 10 mM stock, the compounds were diluted in DMSO to achieve the concentrations.
11β-HSD1 SPA Enzyme Assay
11β-HSD1 was assayed by Scintillation Proximity assay in a 384-well Perkin Elmer white plate. The dose response of the compounds was determined using 11 half-log dilutions of compound in DMSO in duplicate. To each well, 0.5 μl of compound dilution in DMSO were added. 15 μl of assay buffer (for blanks) or 15 μl of human microsomes in assay buffer were added next and the plates were incubated for 10 min at room temperature. The final microsomal protein concentration was 1.1 μg/assay. Duplicates were in the same plate one row below the other. 10 μl of ^3H-cortisone (final concentration 40 nM) was added to each well and the plate was spun down to mix and bring down the contents to the bottom of the wells. The plates were incubated at room temperature with gentle shaking for 4 hrs. The reaction was stopped with addition of 10 μl of 10 mM carbenoxolone. Then, 0.5 mg of yttrium silicate SPA beads coupled to anti-cortisol antibody in 20 μl were added to all the wells of plate, which were spun down once more and incubated at room temperature overnight. The plate was read in a TopCount® (1 min/well). Data were uploaded automatically to Tool Set, a Lead Evaluation informatics program for data capture and calculation. Graphs were generated with the Curve Master program.

SMILES | IC50
CC(C)(c1ccc(Cl)cc1)c1nnc2c(C3CC3)nccn12 [Example 1, 3-(2-(4-Chlorophenyl)propan-2-yl)-8-cyclopropyl-[1,2,4]triazolo[4,3-a]pyrazine] | 1.8 nM
Clc1ccc(C2(c3nnc4nc(C5CC5)ccn34)CC2)cc1 [Example 3, 3-(1-(4-Chlorophenyl)cyclopropyl)-7-cyclopropyl-[1,2,4]triazolo[4,3-a]pyrimidine] | 453 nM
FC(F)(F)Oc1ccccc1Oc1nccn2c(C3(c4ccc(Cl)cc4)CC3)nnc12 [Example 4, 8-(2-(Trifluoromethoxy)phenoxy)-3-(1-(4-chlorophenyl)cyclopropyl)-[1,2,4]triazolo[4,3-a]pyrazine] | 0.5 nM
Clc1ccc(C2(c3nnc4c(C5CC5)nccn34)CCC2)c(Cl)c1 [Example 6] | 0.6 nM
CC(C)(Oc1ccccc1)c1nnc2c(Cl)nccn12 [Example 16] | 6030 nM
C=CCCc1nccn2c(C3(c4ccc(Cl)cc4)CC3)nnc12 [Example 25] | 1.3 nM
OC12CCC(c3nnc4c(Oc5ccccc5Cl)nccn34)(CC1)C2 [Example 27] | 336 nM
Clc1ccc(C2(c3nnc4c5sccc5ncn34)CC2)cc1 [Example 28, 3-(1-(4-Chlorophenyl)cyclopropyl)thieno[2,3-e][1,2,4]triazolo[4,3-c]pyrimidine] | 86 nM
Clc1ccc(C2(c3nnc4c5c(cnn34)CCCC5)CC2)cc1 [Example 29, 3-(1-(4-Chlorophenyl)cyclopropyl)-7,8,9,10-tetrahydro-[1,2,4]-triazolo[3,4-a]phthalazine TFA Salt] | 12 nM
CC(C)(O)c1nccn2c(C3(c4ccc(Cl)cc4)CC3)nnc12 [Example 35, 2-(3-(1-(4-Chlorophenyl)cyclopropyl)-[1,2,4]triazolo[4,3-a]pyrazin-8-yl)propan-2-ol TFA salt] | 7.9 nM
CC(C)(O)c1ccnn2c(C3(c4ccc(Cl)cc4)CC3)nnc12 [Example 36, 2-(3-(1-(4-Chlorophenyl)cyclopropyl)-[1,2,4]-triazolo[4,3-b]pyridazin-8-yl)propan-2-ol] | 1.2 nM
CC(C)(Oc1ccc(Cl)cc1Cl)c1nnc2c(C3CC3)nccn12 [Example 38] | 1.8 nM
CC(C)(c1ccc(F)cc1)c1nnc2c(Cl)nccn12 [Example 41] | 5130 nM

Source: patent US8546394B2, “Substituted [1,2,4]triazolo[4,3-A]pyrazine 11-beta-hydroxysteroid dehydrogenase inhibitors” (Bristol-Myers Squibb Company, priority 2007, dated 2013)
